Test results published in patent US8920814B2, “Bacterial endotoxin for the prevention of metabolic disorders and bacterial infections” (The Governors of the University of Alberta, priority 2007, dated 2014).

Tests used:
[1] = system: rumen tissue; assay: Ussing chamber permeability of rumen tissue to 3H-mannitol and LPS; format: cell-based, feedlot steers; conditions: for increase of permeability of rumen tissue to 3H-mannitol: acidic pH 4.5 and presence of LPS (500 μg/mL), Ussing chamber
Description: FIG. 5 is a graph depicting permeability of rumen tissue (obtained from killed feedlot steers) to ^3H-labeled mannitol under different pH values and in the presence (▪) or absence (□) of lipopolysaccharide (LPS) from E. coli B:055 in an Ussing chamber.
FIG. 7 is a graph depicting translocation of LPS across rumen tissue (obtained from killed feedlot steers) under different pH values and in the presence (▪) or absence (□) of lipopolysaccharide (LPS) from E. coli B:055 in an Ussing chamber.
(§1) Accordingly, we investigated whether common rumen fluid and colon concentrations of lipopolysaccharide (LPS) would affect the permeability of rumen and colon tissues to mannitol and LPS in Ussing chambers. In addition, this study was designed to answer the question whether acidic conditions similar to those found in the rumen fluid and colon during conditions of sub-acute and acute acidosis would affect the permeability of rumen and colon tissues to mannitol and LPS.
(§2) Mannitol is a monosaccharide with a molecular weight of 182 daltons and normally is not metabolized by mammalian tissues. Mannitol normally goes through mucosal tissues in small amounts and has been used to evaluate the integrity of mucosal barriers. […] Both acidic pH and presence of LPS disrupts mucosal membranes and make them leaky to bacteria and toxic compounds like endotoxin.
(§3) This means that LPS went through the mucosal membranes (rumen and colon tissues) independently of the pH value.

[2] = system: colon tissue; assay: Ussing chamber permeability of colon tissue to 3H-mannitol and LPS; format: cell-based, feedlot steers; conditions: for increase of permeability of colon tissue to 3H-mannitol: acidic pH 5.5 and presence of LPS (500 μg/mL), Ussing chamber
Description: FIG. 6 is a graph depicting permeability of colon tissue (obtained from killed feedlot steers) to ^3H-labeled mannitol under different pH values and in the presence (▪) or absence (□) of lipopolysaccharide (LPS) from E. coli B:055 in an Ussing chamber.
FIG. 8 is a graph depicting translocation of LPS across colon tissue (obtained from killed feedlot steers) under different pH values and in the presence (▪) or absence (□) of lipopolysaccharide (LPS) from E. coli B:055 in an Ussing chamber.
as §1, §2, §3

[3] = system: transition dairy cows; assay: Clinical incidence of postpartal metabolic disorders after oral vaccination of transition cows; format: in vivo, Holstein cows; conditions: for reduction of the incidence of metabolic disorders: vs oral saline
Description: (§4) During their final 3 wk prepartum, 32 multiparous Holstein cows were housed in a tie-stall barn with wood shavings for bedding, the number at any given time varied depending on the number of cows at that stage of gestation. Cows were blocked based on their parity, previous milk production as well as their expected day of calving and randomly assigned to one of the four treatment groups (8 cows/group) in a randomized blocked design 2 wk before the expected day of calving until 4 wk postpartum. Cows were offered dry-period and early-lactation diets, formulated according to NRC recommendation (2001) for transition dairy cows.
Diets were mixed and offered as TMR individually once a day at 0600 h. Orts were recorded and discarded before the next feeding each day and the amount of feed was adjusted to ensure a 10% feed residual. Cows were milked twice a day at 0400 and 1500 h, and milk yield was recorded electronically every day for the first 28 days of lactation. All clinical disease and medication were recorded daily during the whole experimental period. The experiment was conducted at the University of Alberta Dairy Research and Technology Center, Edmonton, Canada. All cows were managed and treated in accordance with the guidelines established by the Canadian Council on Animal Care (1993) and all animal-related procedures were approved by the University of Alberta Faculty Animal Policy and Welfare Committee.
(§5) The four groups of cows were administered on d 14, 11, 7, and 4 before the expected day of parturition as well as on d 1 and 3 after parturition, one of the following treatments: (1) oral delivery of 2 mL of saline (0.15 M NaCl), (2) oral delivery of 2 mL of saline containing lipopolysaccharide (LPS) from Escherichia coli 0111:B4 (Sigma, St. Louis, Mo.), (3) intravenous delivery of 100 mL of saline (0.15 M NaCl), or (4) intravenous delivery of 100 mL of saline containing LPS from E. coli 0111:B4. A 5 mL syringe was used for administration of treatment into the oral cavity. The amount of LPS given to cows orally or intravenously (iv) was as follows: (1) on d 14 and 11 before the expected day of parturition 0.01 μg/kg of BW dissolved in 2 mL (oral) or 100 mL (iv) of saline, (2) on d 7 and 4 before the expected day of parturition 0.05 μg/kg of BW dissolved in 2 mL (oral) or 100 mL (iv) of saline, and (3) on d 1 and 3 after parturition 0.1 μg/kg of BW dissolved in 2 mL (oral) or 100 mL (iv) of saline. Cows were given one flat dose of LPS based on the 650 kg average body weight of cows at Dairy Research and Technology Transfer. Rectal temperature, respiration rate, and rumen contraction was measured from all cows 15 min before as well as 60, 120, 180, 240, 300, and 360 min after administration of treatment.

[4] = system: transition dairy cows; assay: Plasma metabolites, minerals and acute phase proteins of transition cows given LPS; format: in vivo, Holstein cows; conditions: oral
Description: as §4, §5
A catheter was introduced into the jugular vein 1 h before the administration of treatment to all cows in the experiment. Blood samples were obtained from the jugular catheter 15 min before as well as at 15, 30, 60, 120, 180, 240, 300, and 360 min after administration of treatment on d 14, 11, 7, and 4 before the expected day of parturition as well as on d 1 and 3 after parturition. Also, 1 single blood sample was obtained during d 10, 17, and 24 after parturition.
(§6) Blood was collected into 10-ml Vacutainer tubes (Beckton Dickinson and Co., Rutherford, N.J.) containing K3-EDTA, and plasma was prepared by centrifugation within 20 min. Plasma samples were stored at −20° C. until analyzed for concentrations of serum amyloid A (SAA), lipopolysaccharide-binding protein (LBP), haptoglobin, C-reactive protein (CRP), glucose, insulin, non-esterified fatty acids (NEFA), beta-hydroxybutyric acid (BHBA), lactate, cholesterol, cortisol, calcium, copper, iron, zinc as well as anti-LPS immunoglobulin A, G, and M.

[5] = system: transition dairy cows; assay: Plasma anti-LPS immunoglobulins A, G and M of transition cows given oral LPS; format: in vivo, Holstein cows; conditions: around parturition
Description: as §4
The four groups of cows were administered on d 14, 11, 7, and 4 before the expected day of parturition as well as on d 1 and 3 after parturition, one of the following treatments: (1) oral delivery of 2 mL of saline (0.15 M NaCl), (2) oral delivery of 2 mL of saline containing lipopolysaccharide (LPS) from Escherichia coli 0111:B4 (Sigma, St. Louis, Mo.), (3) intravenous delivery of 100 mL of saline (0.15 M NaCl), or (4) intravenous delivery of 100 mL of saline containing LPS from E. coli 0111:B4. A 5 mL syringe was used for administration of treatment into the oral cavity. […] Rectal temperature, respiration rate, and rumen contraction was measured from all cows 15 min before as well as 60, 120, 180, 240, 300, and 360 min after administration of treatment. […]
as §6

[6] = system: transition dairy cows; assay: Clinical responses, dry matter intake and milk yield of transition cows given LPS; format: in vivo, Holstein cows; conditions: oral; whole experimental period
Description: We then investigated how transition cows respond clinically to repeated oral and intravenous exposure to an E. coli antigen (E. coli lipopolysaccharide—(“LPS”)) during the 2 weeks before and 1 week after calving, and to determine the effects of repeated oral or intravenous administration of E. coli LPS on eating behaviour and milk yield during the transition period.
During their final 3 wk prepartum, 32 multiparous Holstein cows were housed in a tie-stall barn with wood shavings for bedding, the number at any given time varied depending on the number of cows at that stage of gestation. Cows were blocked based on their parity, previous milk production as well as their expected day of calving and randomly assigned to one of the four treatment groups (8 cows/group) in a randomized blocked design 2 wk before the expected day of calving until 4 wk postpartum. […]
Diets were mixed and offered as TMR individually once a day at 0600 h. Orts were recorded and discarded before the next feeding each day and the amount of feed was adjusted to ensure a 10% feed residual. Cows were milked twice a day at 0400 and 1500 h, and milk yield was recorded electronically every day for the first 28 days of lactation. All clinical disease and medication were recorded daily during the whole experimental period. […]

[7] = listed as lipopolysaccharide (LPS) from Escherichia coli 0:B55
[8] = during 6 h after administration, first week after parturition

lipopolysaccharide (LPS) from E. coli B:055 [LPS from E. coli strain B:055]
increase of permeability of rumen tissue to 3H-mannitol [1]: increase several fold
increase of permeability of rumen tissue to 3H-mannitol [1, 7]: 4 fold
effect on permeability of rumen tissue to mannitol ([1]; pH values between 5.5 and 7.4): did not affect
increase of permeability of colon tissue to 3H-mannitol [2]: increase several fold
increase of permeability of colon tissue to 3H-mannitol [2, 7]: 5 fold
effect on permeability of colon tissue to mannitol ([2]; pH values between 5.5 and 7.4): did not affect

lipopolysaccharide (LPS) from Escherichia coli 0111:B4 [LPS from E. coli 0111:B4]
clinical record of individual cow ([3]; oral LPS group, one cow per block): Normal—Calved day 1, Lameness day 44, Mastitis day 71
reduction of the incidence of metabolic disorders ([3]; oral, after 30 d of parturition): 66%
cows affected by metabolic disorders ([3]; oral, first 30 days after parturition): not affected by any metabolic disorders
cows of the group affected (lameness and mastitis) ([3]; oral, more than 30 days after parturition, one cow): 12%
reduction of the incidence of metabolic disorders ([3]; oral, within the first 30 d after parturition): 100%
plasma glucose concentration vs control cows ([4]; 2 wk before and 1 wk after calving): did not change and were higher
plasma insulin vs control cows ([4]; around parturition): higher
plasma zinc ([4]; around parturition): prevented the decline
plasma copper ([4]; before and after calving): no changes
plasma BHBA concentration vs control cows [4, 8]: lower
plasma NEFA concentration vs control cows [4, 8]: lower
plasma cholesterol concentration vs control cows ([4]; during the 6 h after treatment, last day of the vaccination): Higher
plasma lipopolysaccharide-binding protein (LBP) vs control cows ([4]; especially first 3 days after calving): higher in control cows than in vaccinated ones
plasma serum amyloid A (SAA) vs control group ([4]; experimental period): no significant differences
plasma cholesterol concentration vs control cows ([4]; experimental period / first week after parturition): did not change between the two groups
plasma glucose concentration vs control cows ([4]; first week after calving, before and after vaccination (FIG. 17)): higher
increase of plasma concentration of anti-LPS immunoglobulin M (IgM) [5]: several fold
plasma IgA antibodies against endotoxin vs control cows [5]: lower in vaccinated cows compared with the control ones, although the difference did not reach significant level
plasma anti-endotoxin IgG antibodies vs control cows [5]: lower
dry matter intake vs control cows [6]: no differences
